The source of these data is US20030176494A1, “Novel coumarin and chromene compounds and methods of preparation and use thereof for treating or preventing viral infections” (priority 2001, published 2003).

Molecules are shown by their SMILES. Values after ≈ are worked out from the molar mass of the structure shown. Read-outs that look alike come from different tables or passages of the source. Where only a bound is given, the exact number is not on record here.

One data set relates to HIV. Description: Anti-HIV evaluation by MTT-tetrazolium method (inhibition of CPE in MT-2 / CEM-SS cells). The class given is cell-based. The conditions noted are these: Human immunodeficiency virus 1, CEM-SS; read-out: Antiviral Activities (EC50) HIV. On the procedure:
This example illustrates the anti-HIV activity of various coumarin and chromene compounds which were evaluated using the published MTT-tetrazolium methods^8. Retroviral agents AZT and DDC were used as controls for comparison purposes.
The cells used for screening were the MT-2 and the human T4-lymphoblastoid cell line, CEM-SS, and were grown in RPMI 1640 medium supplemented with 10% fetal (v/v) heat-inactivated fetal calf serum and also containing 100 units/mL penicillin, 100 μg/mL streptomycin, 25 mM HEPES and 20 μg/mL gentamicin. The medium used for dilution of drugs and maintenance of cultures during the assay was the same as above. The HTLV-IIIB and HTLV-RF were propagated in CEM-SS. The appropriate amounts of the pure compounds for anti-HIV evaluations were dissolved in DMSO, then diluted in medium to the desired initial concentration. The concentrations (M medium) employed were […]; 0.001 μM; 0.0032 μM; 0.01 μM; 0.032 μM; 0.1 μM; 0.32 μM; 1 μM; 3.2 μM; 10 μM; 32 μM; and 100 μM. Each dilution was added to plates in the amount of 100 μL/well. Drugs were tested in triplicate wells per dilution with infected cells while in duplicate wells per dilution with uninfected cells for evaluation of cytotoxicity. On day 6 (CEM-SS cells) and day 7 (MT-2 cells) post-infection, the viable cells were measured with a tetrazolium salt, MTT (5 mg/mL), added to the test plates. A solution of 20% SDS in 0.001 N HCl is used to dissolve the MTT formazan produced. The optical density value was a function of the amount of formazan produced which was proportional to the number of viable cells. The percent inhibition of CPE per drug concentration was measured as a test over control and expressed in percent (T/C %).
For orientation: Tetrazolium dyes change colour on reduction, which living cells bring about.

The subject of the next data set is EBV. Description: EBV assay: superinfection of Raji or Daudi cells with P3HR-1, immunofluorescence for EA and VCA. The data set is classed as cell-based, Epstein-Barr Virus (P3HR-1). As to conditions: human gammaherpesvirus 4; read-out: Antiviral Activities (EC50) EBV. The source says:
There are two prototypes of infectious EBV. One is exemplified by the virus derived from supernatant fluids of the P3HR-1cell line. This cell line produces nontransforming virus that causes the production of early antigen (EA) after primary infection or superinfection of B cell lines. The other prototype is exemplified by the B-95-8 virus. This virus immortalized cord blood lymphocytes and induced tumors in marmosets. […] The virus used in our assays is P3HR-1.
Ramos is an exceptional B cell line derived from Burkitt's lymphoma tumor but containing no detectable EBV genome copies and is EBNA negative. Ramos/AW was obtained by in vitro infection of Ramos with the P3HR-1 virus and contains one resident EBV genome copy/cell. Raji is a Burkitt's lymphoma cell line containing 60 EBV genomes/cell, and will be the primary cell used for screening antiviral activity against EBV EA expression. Daudi is a low level producer that contains 152 EBV genome copies/cell. It spontaneously expresses EBV EA in 0.25%-0.5% of the cells. It will be used in follow-up studies to confirm activity. These cell lines respond to superinfection by EBV by expressing EA(D), EA(R), and VCA. All cell lines are maintained in RPMI-1640 medium supplemented by 10% FCS, L-glutamine and 100 μg/mL gentamicin. The cultures are fed twice weekly and the cell concentration adjusted to 3×10^5/mL. The cells are kept at 37° C. in a humidified atmosphere with 5% CO2.
Cells are infected with the P3HR-1 strain of EBV and the drugs to be tested are added after adsorption (45 minutes at 37° C.) and washing of the cell cultures. The cultures are incubated for two days in complete medium to allow viral gene expression. Following the 48 hr incubation period, the number of cells of each sample are counted and smears made. Monoclonal antibodies to the different EA components and VCA are then added to the cells incubated and washed. This is followed by a fluorescein conjugated rabbit anti-mouse Ig antibody; and the number of fluorescence positive cells in the smears are counted. The total number of cells in the cultures positive for EA or VCA are then calculated and compared.

The subject of another data set is HBV. Put plainly: HBV replication in cultures of 2.2.15 cells (HBV DNA blot hybridization). As to conditions: Hepatitis B virus; read-out: Antiviral Activities (EC50) HBV. The data set is classed as cell-based. On the procedure:
Test compounds are then added daily for a continuous 9 day period. Culture medium (changed daily during the treatment period) is collected and stored for analysis of extracellular (virion) HBV DNA after 0, 3, 6, and 9 days of treatment. Treated cells are lysed 24 hours following day 9 of treatment for the analysis of intracellular HBV genomic forms. HBV DVA is then analyzed in a quantitative and qualitative manner for overall levels of HBV DNA (both extracellular and intracellular DNA) and the relative rate of HBV replication (intracellular DNA).
Both intracellular and extracellular HBV DNA are analyzed in order to (i) allow for verification of compound efficacy and (ii) provide possible data on the target site in the HBV replication pathway for the compound from examination of the pattern of viral replicative forms. The culture medium is changed daily during the treatment period to (i) prevent the buildup of potentially toxic metabolites derived from test compounds and (ii) provide an analysis of HBV virion production during discrete 24-hour intervals which enables a quantitative comparison of any effect on virion production.
The analysis of HBV DNA is performed using blot hybridization techniques (Southern and slot blot) and [^32P]-labeled HBV-specific probes. HBV DNA levels are measured by comparison to known amounts of HBV DNA standards applied to every nitrocellulose membrane (gel or slot blot). An AMBIS beta scanner, which measures the radioactive decay of the hybridized probes directly from the nitrocellulose membranes, is used for the quantitative analysis. Standard curves, generated by multiple analyses, are used to correlate CPM measurements made by the beta scanner with relative levels of target HBV DNA. The levels of HBV virion DNA released into the culture medium are analyzed by a slot blot hybridization procedure. HBV DNA levels are then compared to those at Day 0 to determine the effect of drug treatment.
The levels of RI and episomal monomers are used as an indicator of the relative level of HBV replication. Integrated HBV DNA is used to normalize the relative amounts of DNA in each lane because the levels of this class of HBV DNA would be expected to remain constant on a per cell basis. […] Inhibition of HBV DNA replication is indicated by the loss of RI without changes in the level of integrated HBV DNA.

A further data set concerns Measles Virus. Description: Measles virus antiviral assay (CPE inhibition, neutral red uptake, virus yield). The class given is cell-based, Measles virus strain CC. As to conditions: Measles morbillivirus.
Data set [1] has as its system Respiratory Syncytial Virus. Put plainly: Respiratory syncytial virus antiviral assay (CPE inhibition, neutral red uptake). The class given is cell-based, Respiratory syncytial virus strain Utah 89. The conditions noted are these: human respiratory syncytial virus.
The test system of another data set is Rhinovirus. Put plainly: Rhinovirus antiviral assay (CPE inhibition, neutral red uptake, virus yield). The data set is classed as cell-based. As to conditions: Enterovirus.
The test system of a further data set is VZV. Description: VZV plaque reduction assay in human foreskin fibroblast cells. The data set is classed as cell-based, Varicella Zoster Virus (Ellen strain). The conditions noted are these: Human alphaherpesvirus 3, Fibroblast; read-out: Antiviral Activities (EC50) VZV. As for the experimental part: [table] Two days prior to use, HFF cells are plated into six-well plates and incubated at 37° C. with 5% CO2 and 90% humidity. On the date of assay, the drug is made up at twice the desired concentration in 2×MEM and then serially diluted 1:5 in 2×MEM using six concentrations of drug. […] The media is then aspirated from the wells and 0.2 mL of virus is added to each well in duplicate with 0.2 mL of media being added to drug toxicity wells. The plates are then incubated for one hour with shaking every fifteen minutes. […] The drug agarose mixture is applied to each well in 2 mL volume and the plates then incubated for three days, after which the cells were stained with a 1.5% solution of neutral red. At the end of 4-6 hr incubation period, the stain is aspirated, and plaques counted using a stereomicroscope at 10× magnification. The procedure is essentially the same as for the HSV plaque assay described above with two exceptions: 1. After addition of the drug, the plates are incubated for ten days. 2.
A general note: Plaques are areas of infected cells; plaque reduction assays count them against a control.

The test system of the next data set is HIV-1. As to conditions: cited from earlier work.
In data set [2] the test system is human T-lymphoblastic cells (CEM-SS). As to conditions: cited from earlier work.
In data set [3] the test system is AZT-resistant G-9106 strain of HIV. As to conditions: cited from earlier work.
The test system of data set [4] is pyridinone-resistant A17 virus. As to conditions: cited from earlier work.

As to `CCCc1cc(=O)oc2c3c(c4c(c12)OC(C)(C)[C@H](O)[C@H]4OC(=O)c1cccc(Cl)c1)O[C@H](C)[C@@H](C)C3=O`, the EC50 in the data set on HIV was more than 3 µg/mL; in the data set on EBV, 29.2 µg/mL (≈ 54 µM); with HBV, 2.6 µg/mL (≈ 4.81 µM); with Measles Virus (CPE inhibition, read-out: Antiviral Activities (EC50) Measles (CPE)), 3 µg/mL (≈ 5.55 µM); in the data set with Measles Virus (neutral red (NR) dye uptake, read-out: Antiviral Activities (EC50) Measles (NR)), 0.4 µg/mL (≈ 0.739 µM); in [1] (CPE inhibition, read-out: Antiviral Activities (EC50) Respiratory Syncitial (CPE)), 3 µg/mL (≈ 5.55 µM). Besides, the EC50 in data set [1] (neutral red (NR) dye uptake, read-out: Antiviral Activities (EC50) Respiratory Syncitial (NR)) was 4 µg/mL (≈ 7.39 µM); in the data set with Rhinovirus (CPE inhibition, read-out: Antiviral Activities (EC50) Rhinovirus (CPE)), 0.1 µg/mL (≈ 0.185 µM); in the data set on Rhinovirus (neutral red (NR) dye uptake, read-out: Antiviral Activities (EC50) Rhinovirus (NR)), 0.1 µg/mL (≈ 0.185 µM); in the data set with Rhinovirus (read-out: Antiviral Activities (EC50) Rhinovirus (virus yield)), 4 µg/mL (≈ 7.39 µM); in the data set on VZV, 3.5 µg/mL (≈ 6.47 µM).
On to `CCCc1cc(=O)oc2c3c(c4c(c12)OC(C)(C)C=C4)O[C@H](C)[C@@H](C)[C@@H]3O` [(+)-calanolide A, (+)-Calanolide A], for which, in the data set on HIV-1 (down to a concentration of 0.1 μM), the “protection against the cytopathic effects of HIV-1” value is reported as 100%. For the same compound, the EC50 in the data set with HIV-1 (human T-lymphoblastic cells (CEM-SS), read-out: EC50, HIV-1 replication in CEM-SS) is 0.1 µM. The IC50 in [2] is 20 µM. For the same compound, the “activity against AZT-resistant G-9106 strain of HIV” value in data set [3] is “active”. For the same compound, the “activity against pyridinone-resistant A17 virus” value in data set [4] is on record as “active”.
Turning to `CCCc1cc(=O)oc2cc(OC(=O)C(C)(C)C)cc(O)c12` [Compound 7b, 5-Hydroxy-7-pivaloyloxy-4-propylcoumarin], the melting point fell in the range of 158 to 160 °C.

For orientation: EC50 means the concentration giving half of the maximal effect. A word on the IC50: it is the concentration needed to halve the response being measured. Broadly, the melting point is the temperature of the solid-liquid transition.
